Source: PubChem BioAssay AID1324 (NMMLSC, 2008)
Active and inactive are the calls of the source. No rule for the calls is given here.

Biological target: glutathione S-transferase (GST-GSH binding)
Assay: GST–glutathione interaction disruption – biochemical, multiplex beads, flow cytometry, HPSMTB buffer, profiling panel (AID 1324);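 also: glutathione beads loaded with GST-green fluorescent protein and no fluorescent Bim peptide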
Details: multiplex bead flow cytometry, MCF; for percent span inhibition: stronger effect = higher value, concentration not given here

Compound	percent span inhibition	EC50
O=C(c1ccc(CNS(=O)(=O)c2ccc(Br)cc2)cc1)N1CCCC1	inactive	–
Cc1cccc(C(=O)N2CCC(c3nc(-c4ccc(S(=O)(=O)N5CCOCC5)cc4)no3)CC2)c1	inactive	–
COc1cc(/C=N/NC(=O)CN(Cc2ccco2)S(=O)(=O)c2ccccc2)ccc1O	inactive	–
COc1ccc(NS(=O)(=O)c2cc(NC(=O)c3ccc(C)o3)ccc2N2CCCCC2)cc1	inactive	–
Cc1cc(C)c2c(N)c3cccc(C)c3nc2n1	inactive	–
CN1C2C=C3C(C#N)=C(N)C(C#N)(C#N)[C@@H](c4ccsc4)[C@@H]3C1CC2 (stereo partly specified)	inactive	–
O=C(NCc1ccccc1)C(=O)Nc1nc(C23CC4CC(CC(C4)C2)C3)cs1	inactive	–
c1ccc(-c2nc(N3CCCCC3)nc3ccccc23)cc1	inactive	–
O=C(CNC(=O)c1ccco1)NCC(=O)OCc1ccccc1Br	inactive	–
CCOC(=O)C1=C(Cc2ccc(C)cc2)C(=O)c2ccccc2C1=O	inactive	–
CN(C)C(=O)N1CCC(C(=O)NC2CCCCCCC2)CC1	inactive	–
COc1ccccc1C1=Nc2cccc3cccc(c23)N1	inactive	–
CC(C)(C)C1CCC(=NNC(=O)c2cc3c(s2)CCCC3)CC1 (stereo unspecified)	inactive	–
CC(C)n1nnnc1SCC(=O)N1CCN(C(=O)c2ccco2)CC1	inactive	–
O=C(C[n+]1ccc(-c2nnc3n2CCC3)cc1)c1ccc(Cl)c(Cl)c1	inactive	–
CNc1ccc(Br)cc(C(=O)/C=C/c2cc(OC)ccc2OC)c1=O	inactive	–
CN(C)c1ccc(/C=C2/SC(=O)N(CCN=C3NS(=O)(=O)c4ccccc43)C2=O)cc1	inactive	–
CC1C=CCC2C(=O)N(c3ccc(OC(=O)c4cccs4)cc3)C(=O)C12 (stereo unspecified)	inactive	–
O=C(/C=C/c1ccc(-c2ccccc2[N+](=O)[O-])o1)c1ccccc1	inactive	–
CC(C)c1ccc(C2CC(c3ccc(Br)cc3)=NN2C(N)=S)cc1 (stereo unspecified)	inactive	–
Cc1ccc(OCC(=O)NCc2ccccn2)c(Br)c1	inactive	–
O=C(NCCO)c1ccc2nc(-c3ccco3)c(-c3ccco3)nc2c1	–	9030 nM
CCC(/C=C1\Sc2ccc(OC)cc2N1CCO)=C\c1sc2ccc(OC)cc2[n+]1CCO	inactive	–
O=C(NNC(=O)C12CC3CC(CC(C3)C1)C2)c1ccco1	inactive	–
CCN1/C(=C/c2ccc3cc(C)ccc3[n+]2CC)Sc2cc(C)c(C)cc21	inactive	–
Cc1ccc(-c2cc(-c3ccc(F)cc3)nc(N)c2C#N)o1	inactive	–

Compound	percent span inhibition	EC50
Cc1cccc(N=C2NC(=O)/C(=C/C=C/c3ccco3)S2)c1C	–	inactive
O=C(OCc1nc2ccccc2[nH]1)C12CC3CC(CC(C3)C1)C2	inactive	–
Cc1nc2ccccc2n1CSc1ccccc1	inactive	–
Cc1cc(-c2csc(N)n2)c(C)n1CCc1ccccc1	inactive	–
COC(=O)c1sc2nc[nH]c(=O)c2c1C	–	inactive
Cc1cc(Cl)c(S(=O)(=O)NCC2CCCO2)cc1OCC(N)=O (stereo unspecified)	inactive	–
CCc1cccc(CC)c1-n1c(-c2cccnc2)n[nH]c1=S	inactive	–
Cc1ccc(C2=N/C(=C/c3cccs3)C(=O)N2Nc2ccccc2)cc1	inactive	–
CNC(=O)CC1C(=O)N(Cc2ccccc2)C(=S)N1NC(=O)c1cccc(F)c1 (stereo unspecified)	inactive	–
CCOc1c(Cl)cc(CNc2ccc(N3CCCC3)cc2)cc1OC	inactive	–
CN(/N=C/C=C/c1ccccc1)C1=NS(=O)(=O)c2ccccc21	–	2520 nM
COc1ccc(OC)c(NC(=O)CCCN2C(=S)NC(C)(C)CC2C)c1 (stereo unspecified)	inactive	–
OCCN1CCN(CCCc2c3c(cc4c2CCC4)CCC3)CC1	inactive	–
Cc1ccc(-c2c3c([nH]c(=S)c2C#N)CCCC3)o1	inactive	–
CCOC(=O)C1CCN(C(=O)Nc2ccc3nc(-c4ccco4)c(-c4ccco4)nc3c2)CC1	inactive	–
COCCNC(=O)CN1CCC(NC(=O)Nc2ccccc2)CC1	inactive	–
O=C1c2ccccc2C(=O)N1c1cccc2cccnc12	inactive	–
O=C(NC1=C(NC2CCS(=O)(=O)C2)C(=O)c2ccccc2C1=O)c1ccccc1 (stereo unspecified)	inactive	–
Cc1cc(NC(=O)CCCC(=O)NCc2ccccc2)no1	inactive	–
CCNC(=O)N1c2ccc(OCC)cc2C(C)=CC1(C)C	inactive	–
Cc1nn(-c2ccc(Cl)c(Cl)c2)c(C)c1C(=O)O	inactive	–
O=C1NC(=O)C2(Cc3c(nc4ccccn4c3=O)N3CCCCCC32)C(=O)N1Cc1ccccc1 (stereo unspecified)	inactive	–
Cc1cc(C)nc(/N=c2/ssnc2Cl)c1	inactive	–
Cc1c(N2C(=O)c3ccc4c5c(ccc(c35)C2=O)CC4)c(=O)n(-c2ccccc2)n1C	inactive	–
BrC(=C\c1ccccc1)/C=N/N1CCN(c2ccccc2)CC1	inactive	–
Cc1ccc(N=c2ssnc2Cl)cc1	inactive	–

Compound	percent span inhibition	EC50
CC(C)CN1C(=O)/C(=C/c2ccco2)NC1=S	inactive	–
Cc1cc(-c2nn(-c3ccccc3)cc2/C=C2\SC(N)=NC2=O)ccc1OC(C)C	inactive	–
COc1ccc(CC(=O)Nc2ccc3nc(C)sc3c2)cc1OC	inactive	–
CC1N(C)c2cccc3cccc(c23)N1C	inactive	–
C=CS(=O)(=O)c1sc(Cl)c(N2CCOCC2)c1[N+](=O)[O-]	inactive	–
O=S1(=O)N=C(N(CCO)/N=C/c2ccccc2)c2ccccc21	inactive	–
COc1ccc(OC)c(-n2c(-c3ccc(C)cc3)n[nH]c2=S)c1	inactive	–
O=C(c1ccccc1NS(=O)(=O)c1ccc(Br)s1)N1CCCC1	inactive	–
O=C(Nc1nccs1)c1ccc(COc2ccc(F)cc2)o1	inactive	–
COc1ccc(C2CC(=O)C3=C(C2)Nc2ccccc2NC3c2coc3ccccc3c2=O)cc1OC (stereo unspecified)	inactive	–
Nc1ccccc1N=c1ssnc1Cl	inactive	–
O=C(C1=C(Nc2ccccc2)c2ccccc2S(=O)(=O)N1)c1ccccc1	inactive	–
CCOc1ccc2nc(SCC(=O)N3c4ccccc4Sc4ccccc43)c(C#N)cc2c1	inactive	–
CC(=O)N1CCN(C(=O)c2ccc(-n3c(C)ccc3C)cc2)CC1	inactive	–
CCN(C(=O)COC(=O)c1cc(-c2ccc(C)o2)nc2ccccc12)C1CCS(=O)(=O)C1 (stereo unspecified)	inactive	–
COc1cccc(NC(=O)CSc2nncn2N)c1	inactive	–
O=C1Nc2ccc([N+](=O)[O-])cc2OC1CCN1CCN(Cc2ccc3c(c2)OCO3)CC1 (stereo unspecified)	inactive	–
O=C(N/N=C/c1ccc(O)c(O)c1O)/C(=C/c1ccc([N+](=O)[O-])cc1)NC(=O)c1ccccc1	inactive	–
O=C(Nc1ccccn1)c1cc2ccccc2o1	inactive	–
CN(CCCOc1ccccc1Br)Cc1ccccc1	inactive	–
CCOCCCNc1nc(=S)[nH]c2cc(OC)c(OC)cc12	–	inactive
Cc1ccc(-c2cc(C(=O)Nc3ccccn3)c3ccccc3n2)o1	inactive	–
O=C(O)/C=C/C(=O)NNC(=O)c1ccc(Br)cc1	inactive	–
CC1Cc2ccccc2N1C(=O)CSc1nnnn1-c1ccc2c(c1)OCCO2 (stereo unspecified)	inactive	–
O=C(/C=C/c1ccc(-c2ccccc2)o1)c1ccccc1	inactive	–
NC(=O)CSc1nnc(Cn2cnc3ccccc32)o1	inactive	–

Compound	percent span inhibition	EC50
O=[N+]([O-])c1c(NCCO)cc(Sc2nc3ccccc3s2)c2nonc12	inactive	–
CCOC(=O)c1cc2c(=O)n3ccccc3nc2n(Cc2ccco2)c1=NC(=O)c1ccccc1OC	inactive	–
O=C(NCCCN1CCCC1=O)NC1CCCCC1	inactive	–
CCn1c(SCC(=O)Nc2ccccc2-c2ccccc2)nnc1-c1ccoc1C	inactive	–
CCN(CC)c1ccc(NC(=O)c2ccccc2Br)cc1S(=O)(=O)Nc1ccccc1OC	inactive	–
O=C(Nc1ccc2nc(-c3ccco3)c(-c3ccco3)nc2c1)N1CCCCCC1	–	inactive
CNc1ccc(Br)cc(C(=O)/C=C/c2ccc(OC)cc2OC)c1=O	inactive	–
COC(=O)CSc1nccc(-c2cccs2)n1	inactive	–
COc1cc(C2Nc3cccc4cccc(c34)N2)ccc1OC(C)=O	inactive	–
CN(C)C(Cc1ccccc1)C(=O)c1cccs1 (stereo unspecified)	inactive	–
Cc1c(NC2=C(Cl)C(=O)N(c3ccccc3Cl)C2=O)c(=O)n(-c2ccccc2)n1C	inactive	–
Cc1cc(N)ccc1N1CCCC1	inactive	–
O=C(CSc1nc2ccsc2c(=O)n1Cc1ccc(C(=O)O)cc1)NCC1CCCO1 (stereo unspecified)	inactive	–
CNc1ccc(Br)cc(C(=O)/C=C/c2cccc(OC)c2)c1=O	inactive	–
COc1ccc(-n2c(=O)c3ccccc3c3ccccc3c2=O)c(OC)c1	–	inactive
O=C(O)c1ccccc1NSc1ccccc1[N+](=O)[O-]	inactive	–
CCOc1ccccc1/C=N/NC(=O)CNC(=O)COc1ccccc1	inactive	–
CN1CCN(C2=C(Cl)C(=O)C(c3cnc(N4CCCCC4)s3)=C(Cl)C2=O)CC1	–	220 nM
Cc1cccc(NC(=S)N2CCn3cccc3C2c2cccnc2)c1 (stereo unspecified)	inactive	–
Cc1cc(Cl)ccc1N=c1ssnc1Cl	inactive	–
Cc1cc(OCc2cn3cccnc3n2)ccc1Cl	inactive	–
O=C(Nc1nnc(C2CC2)s1)C1Cc2ccccc2CN1S(=O)(=O)c1ccccc1F (stereo unspecified)	inactive	–
CCOC(=O)CSC1=NC(=O)/C(=C/c2ccc(OC)cc2)S1	inactive	–
